Assay results as given in article PMC6445193 (Journal of Enzyme Inhibition and Medicinal Chemistry, 2017).
Where two headings read alike, the source gives them in different places. Each block holds one molecule with its values, some of them ahead of it.

Tests used:
brain homocysteine = tested on: brain homocysteine; set-up: method as in PMID 24813734; settings: reported by Converso; cited from earlier work
SAHH = tested on: SAHH; set-up: method as in PMID 24813734; settings: data from literature; cited from earlier work
[1] = target: T1, human S-adenosyl-homocysteine hydrolase (rSAHH) (Homo sapiens, UniProt P23526); assay: SAHH inhibition, IC50 determination with recombinant SAHH (hydrolysis of SAH, Hcy determined with DTNB); format: biochemical
[2] = set-up: method as in PMID 24813734; settings: long term exposure; cited from earlier work
[3] = target: T1, human S-adenosyl-homocysteine hydrolase (rSAHH); assay: Enzyme kinetics of SAHH-catalyzed hydrolysis of SAH; format: biochemical
[4] = recombinant human SAHH, Tris-HCl pH 6.5, read-out: SAHH IC50

T1 sequence (P23526 whole entry): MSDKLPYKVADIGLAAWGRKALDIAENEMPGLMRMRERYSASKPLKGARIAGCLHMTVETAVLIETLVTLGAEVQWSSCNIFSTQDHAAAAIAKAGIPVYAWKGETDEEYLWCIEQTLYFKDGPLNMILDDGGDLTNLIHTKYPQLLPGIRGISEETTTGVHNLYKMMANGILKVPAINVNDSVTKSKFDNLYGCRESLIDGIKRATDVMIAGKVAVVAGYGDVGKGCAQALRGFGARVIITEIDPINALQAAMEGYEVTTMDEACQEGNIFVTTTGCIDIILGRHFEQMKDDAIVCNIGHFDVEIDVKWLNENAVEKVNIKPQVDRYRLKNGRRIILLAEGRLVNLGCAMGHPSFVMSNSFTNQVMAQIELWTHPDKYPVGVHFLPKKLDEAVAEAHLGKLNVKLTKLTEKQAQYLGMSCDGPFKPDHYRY

Structure (SMILES): Nc1ncc(F)c2c1ncn2[C@@H]1CC[C@@H](O)[C@H]1O [20 ^*]
effect on brain homocysteine (brain homocysteine): reduce brain homocysteine in a dose-dependent manner | IC50 (SAHH): 40 nM

Structure (SMILES): On1nnc2ccccc21 [Compound 1]
IC50 [1]: 1240 nM

Structure (SMILES): COc1ccc(C=O)cc1 [Compound 2]
IC50 [1, 4]: 2130 nM

Structure (SMILES): Fc1ccc(CBr)c(F)c1 [Compound 3]
IC50 [1]: 913 nM

IC50 [1, 4]: 814 nM
Structure (SMILES): COC(=O)/C=C/c1ccc(CBr)cc1 [Compound 4]

Structure (SMILES): COc1cc(C=O)ccc1O [Compound 5]
IC50 [1, 4]: 1100 nM

Structure (SMILES): O=C(OO)c1ccc(Cl)cc1 [Compound 6]
IC50 [1]: 565 nM

Structure (SMILES): Oc1ccc(Cl)c(O)c1 [Compound 7]
IC50 [1]: 1110 nM

IC50 [1, 4]: 679 nM
Structure (SMILES): O=C(O)c1ccc(F)cc1 [Compound 8]

Structure (SMILES): COc1ccc(N)cc1 [Compound 9]
IC50 [1, 4]: 899 nM

IC50 [1, 4]: 1400 nM
Structure (SMILES): CCOC(=O)c1ccc(N)cc1 [Compound 10]

Structure (SMILES): COc1ccc(/C=C/C(=O)O)cc1 [Compound 11]
IC50 [1, 4]: 986 nM

IC50 [1, 4]: 571 nM
Structure (SMILES): O=C(O)/C=C/c1ccc(Cl)cc1 [Compound 12]

IC50 [1, 4]: 34 nM
Structure (SMILES): COc1cc(C=CCO)ccc1O [Compound 13, 4-(3-hydroxyprop-1-en-1-yl)-2-methoxyphenol]

Structure (SMILES): Nc1ncnc2c1ncn2[C@@H]1C=C(CO)[C@@H](O)[C@H]1O [NepA, Neplanocin A]
cytotoxicity [2]: cytotoxic upon long term exposure | IC50 (SAHH): 1.5 nM

Structure (SMILES): Nc1ncnc2c1ncn2[C@@H]1O[C@H](CSCC[C@H](N)C(=O)O)[C@@H](O)[C@H]1O [SAH, S-adenosylhomocysteine]
Km ([3]; read-out: apparent Km of the hydrolytic reaction, substrate SAH): ~21.8 µM | Vmax ([3]; substrate SAH): 22.9 µM/min
